The values that follow come from article PMC9339560 (Journal of Food and Drug Analysis, 2016).

Structures are written as SMILES.

Assay [1] concerns β-amyloid-induced neurotoxicity. The following applies: mice; cited from earlier work.
Assay [2] has as its system AChE. The following applies: cited from earlier work.
For assay [3], the system named is BChE. The following applies: cited from earlier work.
Assay [4] concerns neuronal cell death caused by oxidative stress. The settings on record: cited from earlier work.
In assay [5] the test system is mice with valium-impaired memory. The following applies: radial arm maze; cited from earlier work.
In assay [6] the target is butyrylcholinesterase from equine serum (Equus caballus, UniProt P81908). In words: Butyrylcholinesterase. In kind it is biochemical. The settings on record: read-out: % Inhibition at 100 μg/mL (BChE).
Chain of butyrylcholinesterase from equine serum (P81908 whole entry): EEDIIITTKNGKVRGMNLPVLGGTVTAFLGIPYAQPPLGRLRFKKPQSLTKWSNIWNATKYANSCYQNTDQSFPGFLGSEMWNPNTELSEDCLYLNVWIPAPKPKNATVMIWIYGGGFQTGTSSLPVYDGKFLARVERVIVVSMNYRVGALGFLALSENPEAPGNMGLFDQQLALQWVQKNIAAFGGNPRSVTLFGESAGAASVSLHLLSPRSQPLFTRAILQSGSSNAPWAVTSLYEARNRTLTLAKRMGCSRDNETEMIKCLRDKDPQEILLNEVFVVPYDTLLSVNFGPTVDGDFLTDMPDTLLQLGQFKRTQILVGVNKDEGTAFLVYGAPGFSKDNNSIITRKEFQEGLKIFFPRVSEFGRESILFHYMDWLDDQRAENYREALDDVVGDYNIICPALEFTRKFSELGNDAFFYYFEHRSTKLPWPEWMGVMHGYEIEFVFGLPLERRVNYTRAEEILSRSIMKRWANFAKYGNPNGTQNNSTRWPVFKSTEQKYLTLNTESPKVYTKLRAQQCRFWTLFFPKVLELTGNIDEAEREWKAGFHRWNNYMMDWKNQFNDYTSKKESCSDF

Regarding `O=C(O)/C=C/c1ccc(O)cc1` [p-coumaric, p-coumaric acid], in assay [1], the β-amyloid-induced neurotoxicity entry was “attenuate”.

With `CC[C@H](CC[C@@H](C)[C@H]1CC[C@H]2[C@@H]3CC=C4C[C@@H](O)CC[C@]4(C)[C@H]3CC[C@]12C)C(C)C` [β-sitosterol], the “inhibitory effect on AChE” value in assay [2] is “no appreciable inhibitory effect”. The “inhibitory effect on BChE” value in assay [3] is reported as “no appreciable inhibitory effect”.

Take `Cc1c(C)c2c(c(C)c1O)CC[C@@](C)(CCC[C@H](C)CCC[C@H](C)CCCC(C)C)O2` [α-Tocopherol, α-tocopherol]: the “protection against neuronal cell death caused by oxidative stress” value in assay [4] is given as “protective effects”. Take `COc1cc(/C=C/C(=O)O)ccc1O` [ferulic acid]: the β-amyloid-induced neurotoxicity entry in assay [1] is given as “attenuate”. For `C/C=C(\CC[C@@H](C)[C@H]1CC[C@H]2[C@@H]3CC=C4C[C@@H](O)CC[C@]4(C)[C@H]3CC[C@]12C)C(C)C` [Fucosterol, fucosterol], in assay [3], the BChE inhibitory activity entry is given as “weak BChE inhibitory activity”. For `O=c1c(O)c(-c2ccc(O)cc2)oc2cc(O)cc(O)c12` [kaempferol], in assay [5], the “spatial learning and memory” value was “significantly improved”. As to `O=c1c(O[C@@H]2O[C@H](CO)[C@@H](O)[C@H](O)[C@H]2O)c(-c2ccc(O)cc2)oc2cc(O)cc(O)c12` [Compound 13, kaempferol 3-O-β-glucopyranoside], the inhibition at 100 µg/mL in assay [6] was 7.45 ± 0.72%.

As to `CNC(=O)Oc1ccc2c(c1)[C@]1(C)CCN(C)[C@@H]1N2C` [Physostigmine, physostigmine, reference compound], the inhibition at 100 µg/mL in assay [6] amounted to 94.94 ± 0.04%.
